Source: patent US20230183263A1, “COMBINATION FOR TREATING HEPATITIS B” (FUJIAN AKEYLINK BIOTECHNOLOGY CO., LTD., priority 2020, published 2023)

Columns and labels:
[1] = tested on: D-type HBV; assay: Single drug anti-HBV activity in HepG2-NTCP in vitro infection model; type: cell-based, Hepatitis B Virus; details: for EC50: Hepatitis B virus, 216 h, HepG2-NTCP
Description: (§1) In this study, HepG2-NTCP cell in vitro infection model was used to evaluate the inhibitory activity of a combined administration of compound WWSO with Entecavir (ETV) on HBV The content of HBV DNA in cell supernatant was detected by real-time quantitative PCR (qPCR) method, and the content of HBeAg and HBsAg was detected by ELISA, and the anti-HBV activity of the combined action of the compound was determined, while CellTiter-Glo was used to detect the effect of the test compound on cell viability.
(§2) Cell line: HepG2-NTCP cell line was constructed and provided by WuXi AppTec. HepG2-NTCP cells were HepG2 cells stably transfected and continued to highly express the human NTCP gene, and were susceptible to be infected by HBV The cell medium was DMEM medium added with 10% fetal bovine serum, 1% Penicillin-Streptomycin, 1% glutamine, 1% non-essential amino acids and G418 (500 µg/mL).
Virus: D-type HBV was concentrated from HepG2.2.15 cell culture supernatants.
2.1 On day 0, HepG2-NTCP cells were seeded into a 48-well cell culture plate at a density of 75,000 cells/well, and then the cells were cultured at 5% CO2 and 37° C. overnight.
2.2 On day 2, HBV was added to infect HepG2-NTCP cells.
2.3 On day 3, WWSO and ETV single drugs were administered at seven different concentrations, respectively, or WWSO in combination with ETV was administered at 5 different concentrations in orthorhombic proportion, added to 48-well plates with each combination having three duplicate plates.
2.4 On day 6, the cell supernatant was discarded and fresh medium containing the compounds was added, and the cells were cultured at 5% CO2 and 37° C. for 3 days.
(§3) 2.5 On day 9, cell plate supernatant treated by compound was collected and DNA was extracted according to the QIAamp 96 DNA Blood Kit (12) instructions. HBeAg and HBsAg were detected according to the instructions of ELISA detection kit, meanwhile, the cytotoxicity of compound pairs was detected by CellTiter-Glo kit, and the chemiluminescence intensity (RLU) of each cell well was detected by multifunctional microplate reader according to the method of kit instructions. HBV DNA was quantified by qPCR method. HBV plasmid DNA was used as the standard, and standard HBV plasmid DNA concentration was diluted 7 points starting from 10^7 copies/µL at a 10-fold gradient. The HBV DNA copy number was calculated in each test sample by fitting the standard curve using the HBV DNA copy number and CT values of each standard.

[2] = Cytotoxicity in HepG2-NTCP cells by CellTiter-Glo; type: cell-based, human; details: human, single drug, day 9
Description: as §1, §2, §3

[3] = tested on: D-type HBV; assay: Combined administration in HBV-infected PHH, 5x5 matrix, MacSynergy II analysis; type: cell-based, Hepatitis B Virus; details: two-drug combination with Peg-IFNα-2a; for antagonistic index (inhibition of HBsAg and HBeAg): 95% confidence interval
Description: On day 0, primary human hepatocytes were resuscitated and plated into six 48-well plates (1.32×10^5 cells/well).
On day 1, […] (2000 GE/cell). On the second day, different groups of combined drugs were added for treatment:
The arrangement of the compounds in the combined action is shown in Table 2, and the test concentrations of the compounds are shown in Table 3.
(§4) The final concentration of DMSO in the cell medium was 2%. The medium was replaced with the medium containing the compound on days 4 and 6. On day 8, the culture supernatant was collected for detecting HBV DNA, HBeAg and HBsAg, and then the collected supernatant was added with CellTiter-Glo to measure cell viability.
The arrangement of the compounds in the combined action is shown in Table 4, and the test concentrations of the compounds are shown in Table 5.
as §4, with “in the medium was” for “in the cell medium was”, “the collected cell supernatant was” for “the collected supernatant was”
(§5) HBV DNA detection: DNA in the supernatant was extracted according to the DNA extraction kit (Qiagen-51162), and HBV DNA in the sample was quantified by qPCR method, and the qPCR reaction system is shown in Table 6. HBV plasmid DNA was used as a standard for 10-fold serial dilution, and the standard range was from 1.0× 10^7 copies/µL to 10 copies/µL. The PCR reaction program was: Heating at 95° C. for 10 minutes, then cycle mode was entered, and heating at 95° C. for 15 seconds, then at 60° C. for 1 minute for a total of 40 cycles. The HBV DNA content in the samples was calculated based on the standard curve and the Ct value of each sample.
(§6) Detection of HBeAg and HBsAg: According to the instructions of ELISA kit, the levels of HBeAg and HBsAg in supernatant were detected. The method was briefly described as follows: 50 µL, of standard was taken, and sample and control sample were added into the detection plate, then 50 µL of enzyme conjugate was added to each well, incubated at 37° C. for 60 minutes, and washed with a washing solution and then dried, and then 50 µL of pre-mixed luminescent substrate was added and the mixture was incubated at room temperature for 10 minutes in the dark, and finally the luminescence value was measured by a microplate reader. The content of HBeAg and HBsAg in the sample was calculated according to the standard curve and the chemiluminescence value of each sample.
(§7) Inhibition rate %=(1- HBV DNA content or HBsAg content or HBeAg content in the sample/HBV DNA content or HBsAg content or HBeAg content in DMSO control group) × 100
Combined efficacy was analyzed by MacSynergy™ II software.

[4] = tested on: D-type HBV; assay: Single drug in vitro antiviral activity in HBV-infected PHH (HBV DNA qPCR, HBeAg and HBsAg ELISA); type: cell-based, Hepatitis B Virus; details: for EC50: Hepatitis B virus, 192 h, Day 8
Description: 1. The PHH model was used to evaluate the single drug in vitro antiviral activity of the test compound
On day 0, primary human hepatocytes were resuscitated and plated into two 48-well plates (1.32×10^5 cells/well).
On day 1, HBV was added to infect PHH (2000 GE/cell). […] Fresh medium with compound was replaced every 1 to 2 days.
The final concentration of DMSO in the medium was 2%.
The medium was replaced with the fresh medium containing the compound on days 4, 6, 8, 10, 12, 14, 16, 18 and 20. On day 22, the culture supernatant was collected and cell viability was detected using CellTiter-Glo.
Cell culture supernatants on days 8, 14 and 22 were collected for HBV DNA, HBeAg and HBsAg detection.
as §5, §6, §7
CC50 and EC50 were calculated by GraphPad Prism software, and the inhibition curve fitting method was sigmoidal dose-response (variable slope).

[5] = Cell viability of PHH by CellTiter-Glo; type: cell-based, human; details: human, primary human hepatocytes (PHH), HBV infection model, administration after infection, Day 22
Description: (§8) The medium was replaced with the fresh medium containing the compound on days 4, 6, 8, 10, 12, 14, 16, 18 and 20. On day 22, the culture supernatant was collected and cell viability was detected using CellTiter-Glo. The final concentration of DMSO in the cell medium was 2%. The medium was replaced with the medium containing the compound on days 4 and 6. On day 8, the culture supernatant was collected for detecting HBV DNA, HBeAg and HBsAg, and then the collected supernatant was added with CellTiter-Glo to measure cell viability. The final concentration of DMSO in the medium was 2%. The medium was replaced with the medium containing the compound on days 4 and 6. On day 8, the culture supernatant was collected for detecting HBV DNA, HBeAg and HBsAg, and then the collected cell supernatant was added with CellTiter-Glo to measure cell viability. Cell viability detection: After collecting the cell culture supernatant, CellTiter-Glo was diluted with medium at a ratio of 1:1, and added to the cell plate, and left at room temperature for 10 minutes to detect the luminescence value with a microplate reader. Cell activity% = (luminescence value of sample-average value of blank control well)/(luminescence value of DMSO control group-average value of blank control well) × 100 CC50 and EC50 were calculated by GraphPad Prism software, and the inhibition curve fitting method was sigmoidal dose-response (variable slope).

[6] = tested on: human primary hepatocytes (PHH); assay: Cell viability of PHH by CellTiter-Glo; type: cell-based
Description: as §8

[7] = tested on: HepG2-NTCP cells; assay: Cytotoxicity in HepG2-NTCP cells by CellTiter-Glo; type: cell-based, human; details: single drug and combined action experiments
Description: as §1, §2, §3

## C=C1[C@H](CO)[C@@H](O)C[C@@H]1n1cnc2c(=O)[nH]c(N)nc21 [ETV, Entecavir, reference compound]
[1]; day 9, read-out: HBV DNA EC50
  EC50: 0.06 nM
[1]; day 9, read-out: HBeAg EC50
  EC50: > 20 nM
[1]; day 9, read-out: HBsAg EC50
  EC50: > 20 nM
[2]
  CC50 at 9 day of experiment (read-out): > 20 nM

## O=C(O)c1cn2c(cc1=O)-c1cc(Cl)c(OCCN3CCOCC3)cc1OC2c1ccccc1 (stereo not drawn) [WWS01]
[3]
  combined effect on the inhibition of HBsAg and HBeAg: synergistic or additive effects
  antagonistic index (inhibition of HBsAg and HBeAg): 0

## COCCCOc1cc2c(cc1Cl)-c1cc(=O)c(C(=O)O)cn1[C@H](c1cccs1)O2 [WWS0]
[4]; PHH, administration after infection, read-out: EC50 (Day 8) HBV DNA
  EC50: 45.5 nM
[4]; PHH, administration after infection, read-out: EC50 (Day 8) HBeAg
  EC50: 32.4 nM
[4]; PHH, administration after infection, read-out: EC50 (Day 8) HBsAg
  EC50: 47.3 nM
[4]; PHH, administration before infection, read-out: EC50 (Day 8) HBV DNA
  EC50: 13.5 nM
[4]; PHH, administration before infection, read-out: EC50 (Day 8) HBeAg
  EC50: 26 nM
[4]; PHH, administration before infection, read-out: EC50 (Day 8) HBsAg
  EC50: 47.1 nM
[4]; PHH in vitro infection model, single drug
  inhibition of HBV DNA, HBeAg and HBsAg: dose-dependent manner
[4]; PHH, two modes of administration compared
  inhibition of HBV replication, administration before versus after HBV infection: basically the same
[5]
  CC50 at 22 day of experiment (read-out): > 1000 nM
[6]; administration before infection, Day 22
  CC50: > 1000 nM
[6]; single drug and combined action experiment
  cytotoxicity within the test concentration range: no obvious cytotoxicity
[1]; HepG2-NTCP infected by HBV
  inhibition of HBV DNA, HBeAg and HBsAg: dose-dependent manner
[1]; day 9, read-out: HBV DNA EC50
  EC50: 1.01 nM
[1]; day 9, read-out: HBeAg EC50
  EC50: 2.51 nM
[1]; day 9, read-out: HBsAg EC50
  EC50: 3.19 nM
[2]
  CC50 at 9 day of experiment (read-out): > 100 nM
[7]
  cytotoxicity within the test concentration range: no obvious cytotoxicity

## COCCCOc1cc2c(cc1OC)-c1cc(=O)c(C(=O)O)cn1[C@H](c1sccc1Cl)O2 [WWS02]
[3]
  combined effect on the inhibition of HBsAg and HBeAg: synergistic or additive effects
  antagonistic index (inhibition of HBsAg and HBeAg): 0

## O=C(O)c1cn2c(cc1=O)-c1cc(Cl)c(OCC3CC3)cc1O[C@H]2c1scnc1Cl [WWS03]
[3]
  combined effect on the inhibition of HBsAg and HBeAg: synergistic or additive effects
  antagonistic index (inhibition of HBsAg and HBeAg): 0
